Measurements: patent EP1175417B1, “SUBSTITUTED BENZOLACTAM COMPOUNDS” (Pfizer Products Inc., priority 1999, dated 2000)
Counter-ions that a name gives are not always drawn.

Key:
gerbils = assay: [Sar^9, Met(O2)^11]substance P-induced tapping test; format: in vivo; settings: Meriones unguiculatus, at 0.3mg/kg scoring
Experimental: More specifically, gerbils are lightly anesthetized with ether and the skull surface is exposed. […] Following injection, gerbils are placed in 1 L beaker individually and monitored for repetitive hind paw tapping. Some compounds prepared in the following Examples were tested in accordance with these testing methods.

[1] = molecular target: T1, substance P receptor sites in IM-9 cells (Homo sapiens, UniProt P25103); assay: IM-9 binding assay (inhibition of [^3H]SP binding); settings: inhibition of [^3H]SP binding to human IM-9 cells
T1 construct: endogenous in cells; host or cells: human IM-9 cells
Experimental: The activity of the compounds of the present invention, as substance P antagonists, is determined by their ability to inhibit the binding of substance P at its receptor sites in IM-9 cells employing radioactive ligands. The substance P antagonist activity of the herein described compounds is evaluated by using the standard assay procedure described by D. G. Payan et al as reported in J. Immunology, 133, 3260 (1984). This method essentially involves determining the concentration of the individual compound required to reduce by 50% the amount of radiolabeled substance P ligands at their receptor sites in said isolated cow tissues or IM-9 cells, thereby affording characteristic IC50 values for each compound tested. More specifically, inhibition of [^3H]SP binding to human IM-9 cells by compounds are determined in assay buffer (50 mM Tris-HCl (pH 7.4), 1 mM MnCl2, 0.02 % bovine serum albumin, bacitracin (40 µg/ml), leupeptin (4 µg/ml), chymostatin (2 µg/ml) and phosphoramidon (30 µg/ml)). The reaction is initiated by the addition of cells to assay buffer containing 0.56 nM [^3H]SP and various concentrations of compounds (total volume; 0.5 ml) and allowed to incubate for 120 min at 4 °C. […] Nonspecific binding is defined as the radioactivity remaining in the presence of 1 µM SP. The filters are placed into tubes and counted using liquid scintillation counter.

Ca^2+ channel = molecular target: T2, Ca^2+ channel (Rattus norvegicus, UniProt P22002); assay: verapamil binding study in rat heart membrane preparation; settings: [^3H]desmethoxyverapamil binding
T2 construct: from tissue; host or cells: rat heart membrane preparation
Experimental: The adverse effect on Ca^2+ channel binding affinity is determined by verapamil binding study in rat heart membrane preparation. More specifically, verapamil binding study is performed as previously described by Reynolds et al, J. Pharmacol. Exp. Ther., 237, 731 (1986). Briefly, incubations are initiated by the addition of tissue to tubes containing 0.25 nM [^3H]desmethoxyverapamil and various concentrations of compounds (total volume 1 ml). Nonspecific binding is defined as radioligand binding remaining in the presence of 3-10 µM methoxyverapamil.

T1 sequence (P25103 whole entry): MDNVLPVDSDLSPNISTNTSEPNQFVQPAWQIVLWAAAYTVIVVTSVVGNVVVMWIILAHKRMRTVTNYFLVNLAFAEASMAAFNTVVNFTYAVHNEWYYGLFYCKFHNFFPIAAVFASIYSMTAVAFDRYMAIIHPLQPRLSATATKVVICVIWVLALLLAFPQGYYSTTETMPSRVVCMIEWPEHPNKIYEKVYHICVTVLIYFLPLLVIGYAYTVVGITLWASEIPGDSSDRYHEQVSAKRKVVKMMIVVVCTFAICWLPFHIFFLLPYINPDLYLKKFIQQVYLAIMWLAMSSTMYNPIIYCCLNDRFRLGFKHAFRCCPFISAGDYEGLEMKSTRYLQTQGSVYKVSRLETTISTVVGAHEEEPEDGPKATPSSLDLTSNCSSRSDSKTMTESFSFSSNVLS
T2 sequence (P22002 whole entry, other chains not shown): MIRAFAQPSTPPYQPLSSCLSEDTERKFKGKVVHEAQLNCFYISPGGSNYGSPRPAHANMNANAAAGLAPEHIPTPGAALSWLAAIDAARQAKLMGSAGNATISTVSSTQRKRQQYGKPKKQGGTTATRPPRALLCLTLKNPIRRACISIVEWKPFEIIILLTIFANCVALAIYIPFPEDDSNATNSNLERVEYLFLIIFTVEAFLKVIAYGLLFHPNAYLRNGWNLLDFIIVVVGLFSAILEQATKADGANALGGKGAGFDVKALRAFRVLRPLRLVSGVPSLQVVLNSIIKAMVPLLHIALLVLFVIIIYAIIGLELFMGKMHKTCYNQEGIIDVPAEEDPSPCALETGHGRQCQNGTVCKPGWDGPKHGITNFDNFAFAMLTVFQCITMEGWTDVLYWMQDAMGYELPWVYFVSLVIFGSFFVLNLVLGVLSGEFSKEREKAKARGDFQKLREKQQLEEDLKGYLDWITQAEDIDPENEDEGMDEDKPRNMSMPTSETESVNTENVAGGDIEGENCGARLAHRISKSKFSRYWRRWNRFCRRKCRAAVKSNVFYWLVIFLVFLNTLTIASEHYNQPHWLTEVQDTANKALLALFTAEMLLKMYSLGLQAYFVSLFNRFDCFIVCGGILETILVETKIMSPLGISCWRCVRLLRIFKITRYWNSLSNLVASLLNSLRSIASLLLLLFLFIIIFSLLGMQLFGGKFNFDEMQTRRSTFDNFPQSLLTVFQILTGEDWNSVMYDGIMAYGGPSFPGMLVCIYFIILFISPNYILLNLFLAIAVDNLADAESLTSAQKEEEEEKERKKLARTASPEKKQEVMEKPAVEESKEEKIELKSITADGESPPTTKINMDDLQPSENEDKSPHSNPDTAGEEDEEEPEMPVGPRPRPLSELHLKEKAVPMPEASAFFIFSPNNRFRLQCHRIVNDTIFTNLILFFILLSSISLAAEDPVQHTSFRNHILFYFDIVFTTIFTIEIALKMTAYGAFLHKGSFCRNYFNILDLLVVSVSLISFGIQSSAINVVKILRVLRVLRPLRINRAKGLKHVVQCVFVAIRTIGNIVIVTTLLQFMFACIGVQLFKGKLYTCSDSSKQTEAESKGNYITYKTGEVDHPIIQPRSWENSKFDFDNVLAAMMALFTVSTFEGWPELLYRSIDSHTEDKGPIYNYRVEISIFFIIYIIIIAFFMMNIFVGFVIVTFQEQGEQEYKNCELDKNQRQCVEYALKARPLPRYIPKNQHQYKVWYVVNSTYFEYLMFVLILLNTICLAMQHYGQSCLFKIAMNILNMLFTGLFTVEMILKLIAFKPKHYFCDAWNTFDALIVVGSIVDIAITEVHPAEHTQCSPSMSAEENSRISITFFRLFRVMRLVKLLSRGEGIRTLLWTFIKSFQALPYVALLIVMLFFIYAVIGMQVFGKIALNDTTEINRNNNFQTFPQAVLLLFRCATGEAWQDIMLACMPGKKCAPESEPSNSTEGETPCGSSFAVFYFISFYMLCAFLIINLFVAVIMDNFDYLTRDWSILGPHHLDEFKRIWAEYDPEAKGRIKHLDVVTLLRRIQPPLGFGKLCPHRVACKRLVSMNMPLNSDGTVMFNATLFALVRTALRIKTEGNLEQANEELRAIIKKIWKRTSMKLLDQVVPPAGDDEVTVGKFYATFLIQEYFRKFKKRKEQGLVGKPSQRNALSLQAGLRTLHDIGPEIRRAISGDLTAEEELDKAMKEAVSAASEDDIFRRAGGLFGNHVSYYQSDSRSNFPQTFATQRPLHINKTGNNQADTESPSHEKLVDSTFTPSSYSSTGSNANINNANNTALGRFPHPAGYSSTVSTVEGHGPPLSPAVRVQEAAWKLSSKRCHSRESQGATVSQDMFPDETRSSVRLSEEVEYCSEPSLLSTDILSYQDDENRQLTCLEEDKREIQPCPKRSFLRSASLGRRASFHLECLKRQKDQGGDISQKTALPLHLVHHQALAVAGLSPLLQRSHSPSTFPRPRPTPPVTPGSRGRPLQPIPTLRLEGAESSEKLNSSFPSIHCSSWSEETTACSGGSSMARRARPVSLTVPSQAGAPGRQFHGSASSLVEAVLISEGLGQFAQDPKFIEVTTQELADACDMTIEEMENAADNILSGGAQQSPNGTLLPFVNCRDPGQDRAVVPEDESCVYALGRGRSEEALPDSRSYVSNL
T2 sequence (P54290 25-944 partner limits assumed, other chains not shown): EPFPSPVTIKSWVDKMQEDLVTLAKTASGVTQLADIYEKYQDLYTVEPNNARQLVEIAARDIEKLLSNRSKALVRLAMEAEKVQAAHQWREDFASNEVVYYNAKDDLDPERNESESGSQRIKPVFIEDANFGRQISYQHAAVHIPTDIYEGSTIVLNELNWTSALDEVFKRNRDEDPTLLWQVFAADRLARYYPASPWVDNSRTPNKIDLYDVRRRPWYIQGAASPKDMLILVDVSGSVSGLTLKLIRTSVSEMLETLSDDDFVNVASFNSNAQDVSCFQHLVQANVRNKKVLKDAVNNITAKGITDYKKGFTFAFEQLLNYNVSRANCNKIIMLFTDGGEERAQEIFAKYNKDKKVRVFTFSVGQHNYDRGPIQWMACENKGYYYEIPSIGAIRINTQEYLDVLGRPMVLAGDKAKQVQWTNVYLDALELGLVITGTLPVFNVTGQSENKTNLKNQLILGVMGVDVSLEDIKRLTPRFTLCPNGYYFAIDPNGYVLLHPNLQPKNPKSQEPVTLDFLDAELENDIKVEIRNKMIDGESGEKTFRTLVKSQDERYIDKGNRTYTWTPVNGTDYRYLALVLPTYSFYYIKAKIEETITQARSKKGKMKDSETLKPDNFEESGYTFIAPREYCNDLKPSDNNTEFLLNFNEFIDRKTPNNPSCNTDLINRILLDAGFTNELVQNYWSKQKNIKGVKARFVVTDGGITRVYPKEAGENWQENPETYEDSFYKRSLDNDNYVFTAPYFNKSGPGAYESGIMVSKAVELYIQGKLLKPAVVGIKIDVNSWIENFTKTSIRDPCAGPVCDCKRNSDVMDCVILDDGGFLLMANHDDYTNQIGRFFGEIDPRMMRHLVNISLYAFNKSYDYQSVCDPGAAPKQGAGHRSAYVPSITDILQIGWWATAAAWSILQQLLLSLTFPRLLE
T2 sequence (P54290 945-1091 partner limits assumed, other chains not shown): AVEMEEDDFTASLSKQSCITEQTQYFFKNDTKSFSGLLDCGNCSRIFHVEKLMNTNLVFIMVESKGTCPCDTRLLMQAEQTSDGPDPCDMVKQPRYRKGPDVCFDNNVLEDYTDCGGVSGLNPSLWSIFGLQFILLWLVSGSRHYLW

Which inhibition at 0.3 mg/kg (gerbils) does the source give for `COc1cc2c(cc1CN[C@H]1CCCN[C@H]1c1ccccc1)N(C)C(=O)CC2` [Compound 21, (2S,3S)-3-(6-Methoxy-1-methyl-2-oxo-1,2,3,4-tetrahydroquinolin-7-yl)methylamino-2-phenylpiperidine dihydrochloride] here?
Its inhibition at 0.3 mg/kg is 52%.

And the IC50 [1]?
The IC50 was < 0.1 nM.

And the IC50 (Ca^2+ channel)?
The IC50 was > 3000 nM.
